The test system of data set [1] is IMR-32 Neuroblastoma cells. The data set is described as follows: Erastin-induced ferroptosis in IMR-32 neuroblastoma cells (Sytox Green cell death readout). Type of data set: cell-based. The conditions noted are these: Homo sapiens; IMR-32 cells, 10 μM erastin, compounds 1 nM to 1 μM, triplicate; read-out: IC50, antiferroptotic activity in response to erastin-induced ferroptosis. The protocol: In the present invention the potency of a compound inhibiting (or reducing) ferroptosis and/or oxytosis are determined in in vitro or in vivo assays. Typically in vitro assays are used to measure the potency of a candidate compound. Examples of suitable in vitro assays are cellular assays. One non-limiting example of an assay involves the use of the IMR-32 neuroblastoma cell line. The latter is stimulated to enter into ferroptosis upon stimulation with 10 μM erastin, a documented ferroptosis inducer (see for example Dixon et al (2012) Cell 149, 1060-1072 and ferroptosis inhibitors are evaluated for the prevention of erastin induced ferroptosis. Yet another assay is based the glutamate-induced cell death in the hippocampal cell line HT22 and ferroptosis/oxytosis inhibitors are evaluated for the prevention of cell death (see Henke N. et al (2013) Cell Death and Disease 4, e470). Still another assay is based on the sorafinib induced cell death (described to be iron dependent cell death) in hepatocellular carcinoma cells and ferroptosis inhibitors are evaluated for the prevention of cell death (see Louandre C. et al (2013) Int. J. Cancer 133, 1732). The calculated potency of a compound inhibiting ferroptosis and/or oxytosis is typically depicted as an IC50 value. Examples of suitable in vivo assays are typically pre-clinical disease models of for example mice for the diseases benefiting the application of ferroptosis and/or oxytosis inhibitors, as described herein. One non-limiting example of an in vivo assay is based on inducing liver damage in mice by administering the herbicide diquat dibromide monohydrate and ferroptosis inhibitors are evaluated based on reduced levels of liver transaminases in serum (see Ran Q et al (2004) J. Biol. Chem. 279, 53, 55137).
The IC50 values for the individual compounds of the invention were determined in the neuroblastoma, IMR-32 cell line. In brief, IMR-32 cells were subjected to 10 μM erastin, the latter compound is known to induce ferroptosis. A concentration gradient (ranging from 1 nM to 1 μM) of the compounds was applied to the cells. These experiments were performed in a 96-well format (in triplicate), and cell death was analyzed in a fluorescent plate reader by use of a fluorescent cell death dye (1.5 μM Sytox Green). The IC50 values depicted in Table 1 are the concentration values for the individual compounds which are able to overcome ferroptosis.

A short description of data set [2]: Microsomal (metabolic) stability, mouse liver microsomes. To be noted: pH 7.4. An excerpt: By using the measured microsomal in vitro t1/2, a calculated value for the intrinsic clearance Clint can be determined. This value states the measure in which a drug that is not bound to plasma proteins is irreversibly removed from the body by the liver. This value is expressed in mL/min/kg which can be interpreted as the volume of blood in mL that is cleared of a drug per minute per kilogram of body weight. The CLint is less sensitive to used variables in ADME assays since the amount of microsomal protein and the volume of the incubation are all taken into account. (Sohlenius-Sternbeck et al., Xenobiotica, 2012, 42, 841-853)
Liver microsomes (20 mg protein/ml), NADPH regenerating system solutions A & B and 5 mM stock compound solution (100% DMSO) are prepared. The reaction mixture finally contains 713 μL purified water, 200 μL 0.5 M potassium phosphate pH 7.4, 50 μL NADPH regenerating system solution A (BD Biosciences Cat. No. 451220), 10 μL NADPH regenerating system solution B (BD Biosciences Cat. No. 451200) and 2 μL of the compound stock solution (10 μM final concentration). The reaction mixture is warmed to 37° C. for 5 minutes in a water bath and the reaction is initiated by addition of 25 μL of liver microsomes (0.5 mg protein/ml final concentration). At different time points (0 min-15 min-30 min-60 min-120 min-240 min-360 min-24 h), 20 μL is withdrawn and 80 μL cold acetonitrile is added on ice for 10 minutes. Then the mixtures are centrifuged at 13 000 rpm for 5 min at 4° C. The supernatant is further diluted in 90% water/MeCN (1/25) to fall within the range of the LC/MS/MS analysis. At each time point, the compound is analysed using LC/MS/MS with the same UPLC system as described above. A standard curve of six points was made to fit the measured concentrations. Verapamil was used as a positive control.
All obtained readouts were processed using Microsoft Excel. In order to determine the microsomal half-life t1/2 of the compounds, the rate constant k was determined by plotting the exponential decay graphs using GraFit. Microsomal t1/2 was determined using the following formula: […]

A short description of data set [3]: Plasma stability, human plasma. The conditions noted are these: 37° C., remaining parent compound, read-out: Plasma stability (% recovery after 6 h), Human. Type of data set: in vitro ADME. The protocol:
(§1) 5 μl of a 10 mM stock solution of the compound in DMSO was added to 995 μl of plasma to obtain a 50 μM final solution. The mixture was gently shaken for 6 h at 37° C. Aliquots of 100 μl were taken at various time points (0, 0.5 h, 1 h, 2 h, 3 h and 6 h) and diluted with 400 μl of cold methanol (stored at 4° C.). The suspension was centrifuged at 14000 rpm for 5 min. 50 μl of the supernatant was diluted with 950 μl of methanol and analysed with LC/MS/MS. The samples were analysed in triplicate. The experiment was done in duplicate. […] Enalapril maleate was used as a control in mice, rats, and in human.

A short description of data set [4]: Plasma stability, rat plasma. The conditions noted are these: 37° C., remaining parent compound, read-out: Plasma stability (% recovery after 6 h), Rat. Type of data set: in vitro ADME. The procedure: as §1
The nature of data set [5]: Plasma stability, mouse plasma. To be noted: 37° C., remaining parent compound, read-out: Plasma stability (% recovery after 6 h), Mouse. Type of data set: in vitro ADME. The protocol:
as §1

Data set [6] in a line: Pharmacokinetics and tissue distribution after single-dose iv injection in mice. Type of data set: in vivo. To be noted: iv ~10 mg/kg; for Tissue distribution profile, levels in organs: 24 h after injection; for Crossing of the blood-brain barrier: brain tissue (FIG. 4), 10 mg/kg. The protocol:
FIG. 4: Tissue distribution of ferrostatin-analogues. Equimolar amounts of Ferrostatin (Fer-1), compound 39 (depicted as UAMC-3203) and compound 38 (depicted as UAMC-3206) (˜10 mg/kg) were injected intravenously 2 h (left panel) or 24 h (right panel) before tissue collection (heart, liver, lung, muscle, kidney and brain). Tissues were collected, snap frozen in liquid nitrogen, homogenized and stored at −80° C. until analysis. The tissue samples for LC-MS were further processed by protein precipitation by diluting 20 μL of the homogenate with 80 μL ACN containing IS (tolbutamide). After centrifugation, the supernatant was further diluted in the appropriate solvent.
The detected levels of UAMC-3203 vary between 3-60 ng/mg tissue depending on the organ, which is up to […] or 6-fold higher than the dose injected.

Experiment in data set [7]: as above
The conditions noted are these: single-dose iv injection (~10 mg/kg). Type of data set: in vivo.

The structures appear in SMILES notation.

Regarding `Cl.O=S(=O)(NCCN1CCNCC1)c1ccc(NC2CCCCC2)c(NCc2ccccc2)c1` [Compound 39, 3-(benzylamino)-4-(cyclohexylamino)-N-(2-(piperazin-1-yl)ethyl)benzenesulfonamide Hydrochloride], in data set [1], the IC50 came out at 10 nM. The CLint scaled at 10 µM in data set [2] (liver microsomes) was found to be 18 ± 7.1 mL/min/kg. The compound further gave a half-life at 10 µM in data set [2] (microsomes) of 208 min. The recovery at 6 h, 50 μM in data set [3] stood at 84.2%; in data set [4], 85.8%; in data set [5], 100%. In addition, the “Tissue distribution profile compared to -3206 and benchmark Fer-1” value in data set [6] (2 h after injection) is listed as “superior profile”. Also, the “Tissue distribution profile, levels in organs” value in data set [6] was “still present in range of 2- to 100-fold less than the dose injected”. Further, the “Crossing of the blood-brain barrier” value in data set [6] (Hydrochloride) is on record as “efficiently crosses the blood brain barrier”; in data set [6] (listed as UAMC-3203, Hydrochloride) it was “seems to cross the blood-brain barrier”. In addition, in data set [6] (mouse, tissues (heart, liver, lung, muscle, kidney, brain), 2 h after injection, read-out: Detected levels in tissue depending on the organ), the concentration at 2 h is 3000 to 60000 ng/g. For the same compound, the Levels in blood result in data set [7] was “almost undetectable levels in blood”.
Take `Cl.NCCNS(=O)(=O)c1ccc(NC2CCCCC2)c(NCc2ccccc2)c1` [Compound 38, N-(2-aminoethyl)-3-(benzylamino)-4-(cyclohexylamino)benzenesulfonamide Hydrochloride]: the IC50 in data set [1] was 12 nM. Also, the CLint scaled at 10 µM in data set [2] (liver microsomes) is 4.8 ± 1.5 mL/min/kg. Also, in data set [2] (microsomes), the half-life at 10 µM was 780 min. Moreover, the recovery at 6 h, 50 μM in data set [3], in data set [4] and in data set [5] was 100% each time. Moreover, the “Tissue distribution profile, levels in organs” value in data set [6] is recorded as “detected in very low levels”. Moreover, the Levels in blood result in data set [7] is on record as “almost undetectable levels in blood”.
Consider `CNCCNS(=O)(=O)c1ccc(NC2CCCCC2)c(NCc2ccccc2)c1.Cl` [Compound 37, 3-(benzylamino)-4-(cyclohexylamino)-N-(2-(methylamino)ethyl)benzenesulfonamide Hydrochloride], for which, in data set [1], the IC50 was 3 nM. Also, the CLint scaled at 10 µM in data set [2] (liver microsomes) came out at 139 ± 6.2 mL/min/kg. This compound showed a half-life at 10 µM in data set [2] (liver microsomes) of 27 ± 1.2 min. Also, the recovery at 6 h, 50 μM in data set [3] amounted to 90.3%; in data set [4], 65.8%; in data set [5], 100%. The “Tissue distribution profile, levels in organs” value in data set [6] is recorded as “not detected in any organ”. In addition, the Levels in blood entry in data set [7] is listed as “almost undetectable levels in blood”.

The term IC50 denotes the concentration needed to halve the response being measured. In general, CLint scaled refers to a measure of how fast metabolising enzymes remove a compound, apart from limits set by blood flow. Read a high CLint scaled as rapid turnover. A word on the half-life: it is the time needed for the level to fall by half in the phase considered. Lower therefore signals fast loss.

The values above are taken from US11339124B2, “3-(benzylamino)-4-(cyclohexylamino)-n-(2-(piperazin-1-yl)ethyl)benzenesulfonamide derivatives and related ferrostatin-1 analogues as cell death inhibitors for treating e.g. stroke” (VIB VZW, priority 2018, dated 2022).
